Results: patent US20220354826A1, “PLEUROMUTILIN (E)-4-(1-IMIDAZOYLMETHYL )CINNAMIC ACID ESTER WITH ANTI-DRUG RESISTANT BACTERIA ACTIVITY AND A METHOD OF PREPARING THE SAME” (SHAANXI UNIVERSITY OF SCIENCE AND TECHNOLOGY, priority 2021, published 2022)

Columns and labels:
Assay type in all cases: cell-based
[1] = system: multi-resistant Staphylococcus aureus 171 (MRSA-171); assay: Paper diffusion method drug sensitivity test, MRSA-171; conditions: for inhibitory effect (in words): multi-drug resistant Staphylococcus aureus 171, paper diffusion; for Zone of inhibition: strain MRSA-171, drug sensitive paper 30 μg/tablet, 6.35 mm, LB plate, 37° C., 24 h, ≥17 mm sensitive, 15-16 mm intermediary, ≤14 mm resistance
Protocol: (§1) The antimicrobial efficacy was determined by a paper diffusion method drug sensitivity test.
(§2) Experimental strains: multi-resistant Staphylococcus aureus 171, multi-resistant Staphylococcus aureus 222, multi-resistant Staphylococcus aureus 575. The experimental strains were identified by Huashan Hospital Affiliated to Fudan University (Institute of Antibiotic of Fudan University).
(§3) Drug sensitive paper: The drug sensitive paper is a special drug sensitive paper with a diameter of 6.35 mm and a water absorption of 0.02 mL. The control drug was vancomycin (30 μg/tablet); the test drugs were pleuromutilin (E)-4-(1-imidazoyl-methyl)cinnamic acid ester (30 μg/tablet).
(§4) The experimental strains were inoculated in non-selective medium and placed in air at 37° C. for 24 h. Pick a single colony that grows well and inoculate it into broth medium, incubate at 35° C.±2° C. for 6 hours, and use LA broth medium to calibrate the concentration of the bacterial solution to 0.5 Mie turbidimetric tube ([…]). A bacterial suspension is obtained.
(§5) LB dry powder was weighed, sterilized at 103.4 Kpa, 121.3° C. high-pressure steam for 15 min, and then placed it in a 40° C.-50° C. water bath. A sterile empty plate (inner diameter 9 cm) was placed on the surface of the ultra-clean table water table, and […] to the plate. The thickness of each plate was 3 mm to 4 mm. After the plate was cooled at room temperature, it was stored in the refrigerator at 2° C.-8° C. A sterile cotton swab was used to dip the bacterial solution and to evenly coat the surface of the LB plate 3 times. After inoculation of the bacterial suspension, the LB plate was dried at room temperature for 3 min to 5 min. Sterile forceps were used to closely attach the antibacterial drug paper to the dish. The dish was put upside down and placed in a 37° C. incubator for 24 h. The results were observed by measuring the diameter. Taking 0.5% DMSO solution as a negative control, the antibacterial activity is expressed by the diameter of the inhibition zone. The inhibition zone ≥17 mm, sensitive; the inhibition zone of 15 mm-16 mm, intermediary; the inhibition zone ≤14 mm, drug resistance.

[2] = system: multi-resistant Staphylococcus aureus 222 (MRSA-222); assay: Paper diffusion method drug sensitivity test, MRSA-222; conditions: for inhibitory effect (in words): multi-drug resistant Staphylococcus aureus 222, paper diffusion; for Zone of inhibition: strain MRSA-222, drug sensitive paper 30 μg/tablet, 6.35 mm, LB plate, 37° C., 24 h, ≥17 mm sensitive, 15-16 mm intermediary, ≤14 mm resistance
Protocol: as §1, §2, §3, §4, §5

[3] = system: multi-resistant Staphylococcus aureus 575 (MRSA-575); assay: Paper diffusion method drug sensitivity test, MRSA-575; conditions: for inhibitory effect (in words): multi-drug resistant Staphylococcus aureus 575, paper diffusion; for Zone of inhibition: strain MRSA-575, drug sensitive paper 30 μg/tablet, 6.35 mm, LB plate, 37° C., 24 h, ≥17 mm sensitive, 15-16 mm intermediary, ≤14 mm resistance
Protocol: as §1, §2, §3, §4, §5

C=C[C@]1(C)C[C@@H](OC(=O)COC(=O)/C=C/c2ccc(Cn3ccnc3)cc2)[C@]2(C)[C@H](C)CC[C@]3(CCC(=O)[C@H]32)[C@@H](C)[C@@H]1O
inhibitory effect (in words) [1]: strong inhibitory effects
Zone of inhibition [1]: 16 mm
inhibitory effect (in words) [2]: strong inhibitory effects
Zone of inhibition [2]: 17 mm
inhibitory effect (in words) [3]: strong inhibitory effects
Zone of inhibition [3]: 15 mm

C=C[C@]1(C)C[C@@H](OC(=O)CO)[C@]2(C)[C@H](C)CC[C@]3(CCC(=O)[C@H]32)[C@@H](C)[C@@H]1O [Pleuromutilin]
inhibitory effect (in words) [1]: no inhibitory effect
Zone of inhibition [1]: 0 mm
inhibitory effect (in words) [2]: no inhibitory effect
Zone of inhibition [2]: 0 mm
inhibitory effect (in words) [3]: no inhibitory effect
Zone of inhibition [3]: 0 mm

O=C(O)/C=C/c1ccc(Cn2ccnc2)cc1 [(E)-4-(1-imidazoylmethyl)cinnamic acid]
inhibitory effect (in words) [1]: no inhibitory effect
Zone of inhibition [1]: 0 mm
inhibitory effect (in words) [2]: no inhibitory effect
Zone of inhibition [2]: 0 mm
inhibitory effect (in words) [3]: no inhibitory effect
Zone of inhibition [3]: 0 mm

CN[C@H](CC(C)C)C(=O)N[C@H]1C(=O)N[C@@H](CC(N)=O)C(=O)N[C@H]2C(=O)N[C@H]3C(=O)N[C@H](C(=O)N[C@H](C(=O)O)c4cc(O)cc(O)c4-c4cc3ccc4O)[C@H](O)c3ccc(c(Cl)c3)Oc3cc2cc(c3O[C@@H]2O[C@H](CO)[C@@H](O)[C@H](O)[C@H]2O[C@H]2C[C@](C)(N)[C@H](O)[C@H](C)O2)Oc2ccc(cc2Cl)[C@H]1O [Vancomycin, vancomycin]
Zone of inhibition [1]: 17 mm
Zone of inhibition [2]: 18 mm
Zone of inhibition [3]: 21 mm
